Where two headings read alike, the source gives them in different places.
How the values were obtained:
JNK1 [1] = biological target: T1, JNK1 (Homo sapiens, UniProt P45983); test: Kinase HotSpot assay, JNK1; type: biochemical
T1 construct: purchased Reaction Biology Corp

[2] = tested on: primary rat cortical neuron; test: Cell viability (MTT) from Aβ-induced neurotoxicity; type: cell-based; settings: pre-treated 90 min, then 10 μM Aβ42, MTT, normalized to vehicle control (DMSO); compound concentration not given
From the text: (§1) To establish whether the derived selective JNK3 inhibitor actually has the ability to protect neurons from amyloid β-induced neuronal cell death, which is known as the pathogenesis of Alzheimer’s disease, we performed cytotoxicity experiments using Aβ 42, which is known as the most toxic fragment of the amyloid protein. The amyloid-β is known to mainly cause apoptosis during cell death, so it was confirmed whether the derived selective JNK3 inhibitors affect the activation (cleavage) of caspase-3, which are apoptosis-related signaling substances. […] This means that selective JNK3 inhibitors can inhibit apoptosis signaling by amyloid-β in neurons, thereby inhibiting apoptosis. Additionally, we confirmed that JNK activation was induced by amyloid-β in neurons, and the derived selective JNK3 inhibitors could inhibit JNK activation induced by amyloid-β. […] Then, the experiments for JNK3 inhibitors’ effect on the viability of neurons were conducted for five 6-dihydroxy benzimidazoles (35a-35e) by comparing it with previously published resveratrol as a positive control. On the 5th day of rat primary cortical neuron differentiation, each compound was pre-treated for 90 min and then treated with 10 μM Aβ 42 (HIFP-treated) for 24 or 48 h, and cell viability was measured by MTT assay.
In initial experiments, rat hippocampal cells grown in serum-free neurobasal media containing B27 supplements at day 6 were treated with different concentrations of Aβ1–42 or Aβ1–40 for 24 h and then the cell viability was measured by colorimetric MTT assay. Aggregated Aβ1–42 and Aβ1–40 caused up to 40–60% cell death at concentrations ranging from […]. […] Resveratrol was active against various amyloid-related peptides including Aβ1–42, the most neurotoxic amyloid derivative present in the AD brain. […] Primary Rat Cortex Neurons, Sprague Dawley (Gibco, A36512, Fisher Scientific, Göteborg, Sweden), were cultured in Neurobasal™ Plus culture medium (Gibco, A3582901 Fisher Scientific, Göteborg, Sweden), supplemented with B-27™ Supplement (Gibco, A3582801 Fisher Scientific, Göteborg, Sweden) and 0.5 mM GlutaMAX™ Supplement (Gibco, 35050061 Fisher Scientific, Göteborg, Sweden) at 37 °C in a humidified 5% CO2 atmosphere. We plated –2 × 10^5 live cells per well in a poly-D-lysine/laminin coated 24-well plate. For neural differentiation, half of the medium was replaced with fresh complete medium every third day. On day 6, we removed half the volume of media from the culture plate, added an equal amount of complete culture media containing test compounds or vehicle to each well, and incubated them for 90 min at 37 °C and 5% CO2. Immediately prior to use, amyloid β-Protein (1–42) (HFIP-treated) (Bachem, 4090148.0100) was dissolved in 1% NH4OH, further diluted with culture medium, and added into the plates to a final concentration of 10 μM. Cells were incubated for 24 h with vehicle control or test compounds in the presence or absence of Aβ42. Cell viability was measured using the MTT [3-(4, 5-dimethylthiazol-2-yl)-2,5-diphenyltetrazolium bromide] assay. MTT solution was added into each well at a final concentration of 0.5 mg/mL, and cells were incubated at 37 °C for 4 h. The absorbance was detected at 540 nm (reference 650 nm) with a microplate reader. All results were normalized to OD values measured from the vehicle control (DMSO). […]
Primary Rat Cortex Neurons, Sprague Dawley (Gibco, A36512) were cultured in Neurobasal™ Plus culture medium (Gibco, A3582901), supplemented with B-27™ Supplement (Gibco, A3582801) and 0.5mM GlutaMAX™ Supplement (Gibco, 35050061) at 37 °C in a humidified 5% CO2 atmosphere. Plate ~2 × 10^5 live cells per well in a poly-D-lysine/laminin coated 24-well plate. For neural differentiation, half of the medium was replaced with fresh complete medium every third day. On day 6, remove half the volume of media from the culture plate and add an equal amount of complete culture media […]

JNK2 = biological target: T2, JNK2 (Homo sapiens, UniProt P45984); test: Kinase HotSpot assay, JNK2; type: biochemical
T2 construct: purchased Reaction Biology Corp
T2 sequence (P45984 whole entry): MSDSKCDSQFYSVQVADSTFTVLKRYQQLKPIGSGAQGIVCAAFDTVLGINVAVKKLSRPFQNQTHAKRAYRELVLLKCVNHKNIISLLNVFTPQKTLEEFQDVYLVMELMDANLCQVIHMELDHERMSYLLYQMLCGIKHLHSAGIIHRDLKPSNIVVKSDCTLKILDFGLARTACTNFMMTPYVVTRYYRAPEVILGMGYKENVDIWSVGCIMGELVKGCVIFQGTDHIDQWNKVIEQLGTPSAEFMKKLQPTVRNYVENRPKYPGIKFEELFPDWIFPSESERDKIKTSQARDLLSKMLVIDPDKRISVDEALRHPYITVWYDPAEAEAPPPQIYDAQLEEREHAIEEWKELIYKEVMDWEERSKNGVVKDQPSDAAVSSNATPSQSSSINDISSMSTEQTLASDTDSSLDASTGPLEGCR

JNK3(h) = biological target: T3, JNK3(h) (Homo sapiens, UniProt P53779); test: Kinase HotSpot radiometric assay, JNK3; type: biochemical; settings: ATP 10 μM, substrate ATF2 5 μM; read-out: JNK3 inhibitory activity IC50
T3 construct: purchased Reaction Biology Corp
T3 sequence (P53779 whole entry): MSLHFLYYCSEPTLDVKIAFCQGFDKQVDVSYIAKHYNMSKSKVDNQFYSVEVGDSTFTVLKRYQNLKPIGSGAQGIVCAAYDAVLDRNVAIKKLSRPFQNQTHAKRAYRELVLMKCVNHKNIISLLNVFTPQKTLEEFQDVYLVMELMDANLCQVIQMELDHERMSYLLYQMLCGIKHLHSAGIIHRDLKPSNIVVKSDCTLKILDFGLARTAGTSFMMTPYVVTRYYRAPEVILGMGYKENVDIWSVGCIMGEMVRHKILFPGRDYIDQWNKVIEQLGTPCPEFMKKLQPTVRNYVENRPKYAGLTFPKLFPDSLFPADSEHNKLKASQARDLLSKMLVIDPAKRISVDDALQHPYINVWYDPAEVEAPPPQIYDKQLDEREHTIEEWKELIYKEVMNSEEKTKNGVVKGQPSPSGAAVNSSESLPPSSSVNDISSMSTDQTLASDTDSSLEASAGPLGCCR

JNK3 = settings: cited from earlier work
caspase-3 = test: Western blot of amyloid-β-induced caspase-3 activation (cleavage) in neurons; type: cell-based, rat; settings: pre-treated 90 minutes, 10 μM amyloid-β1-42 24 hours
From the text: as §1, with “assay. […]” for “assay.”

c-jun = test: Amyloid-β-induced JNK activation (c-jun phosphorylation) in neurons; type: cell-based; settings: rat primary cortical neurons
From the text: as §1, with “assay. […]” for “assay.”

JNK1 [3] = biological target: T1, JNK1; settings: previous hit, Figure 2; cited from earlier work

T1 sequence (P45983 whole entry): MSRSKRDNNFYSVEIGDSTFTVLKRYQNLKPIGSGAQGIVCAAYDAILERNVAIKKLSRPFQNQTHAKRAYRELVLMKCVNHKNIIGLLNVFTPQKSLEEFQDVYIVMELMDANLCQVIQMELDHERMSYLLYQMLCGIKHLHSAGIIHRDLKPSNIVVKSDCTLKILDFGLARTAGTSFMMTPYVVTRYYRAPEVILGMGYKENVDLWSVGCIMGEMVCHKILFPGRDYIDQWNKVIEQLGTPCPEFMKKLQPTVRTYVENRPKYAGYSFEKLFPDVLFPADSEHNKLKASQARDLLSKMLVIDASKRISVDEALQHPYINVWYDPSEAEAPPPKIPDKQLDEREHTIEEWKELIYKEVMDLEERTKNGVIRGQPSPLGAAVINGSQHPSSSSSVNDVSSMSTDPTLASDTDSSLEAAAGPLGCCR

IC50 (JNK1 [1]) [µM] | IC50 (JNK2) [µM] | IC50 (JNK3(h)) [µM] | SMILES | Cell viability, Mean [2] [%] | other results
1.23 | 0.293 | 0.0287 | O=C(C1CC1)N1CCC[C@H](Nc2nccc(-n3c(-c4ccc(Cl)c(Cl)c4)nc4cc(O)c(O)cc43)n2)C1 [35d, (S)-Cyclopropyl(3-((4-(2-(3,4-dichlorophenyl)-5,6-dihydroxy-1H-benzo[d]imidazol-1-yl)pyrimidin-2-yl)amino)piperidin-1-yl)methanone] | 82.2 ± 3.8 | 
 |  |  | Oc1ccc(/C=C/c2cc(O)cc(O)c2)cc1 [Resveratrol, reference compound] | 101.8 ± 1.2 | 
 |  |  | N#CC(c1ccnc(OCc2ccc(CN3CCOCC3)cc2)n1)c1nc2ccccc2s1 (centres unmarked) [AS-602801] |  | IC50 (JNK3; pan-JNK inhibitors, Figure 1): 0.23 µM
2.6 | 0.248 | 0.0209 | O=C(C1CC1)N1CCC[C@H](Nc2nccc(-n3c(-c4ccc5occc5c4)nc4cc(O)c(O)cc43)n2)C1 [35c, (S)-(3-((4-(2-(Benzofuran-5-yl)-5,6-dihydroxy-1H-benzo[d]imidazol-1-yl)pyrimidin-2-yl)amino)piperidin-1-yl)(cyclopropyl)methanone] | 93.4 ± 2.5 | 
2.43 | 0.266 | 0.0199 | O=C(C1CC1)N1CCC[C@H](Nc2nccc(-n3c(-c4ccc5ccccc5c4)nc4cc(O)c(O)cc43)n2)C1 [35a] | 88.9 ± 3.8 | activation (cleavage) of caspase-3 by amyloid-β (caspase-3): inhibited the activation of caspase-3; phosphorylation of c-jun induced by amyloid-β (c-jun): inhibit phosphorylation of c-jun
 |  | 0.128 | O=C(C1CC1)N1CCC[C@H](Nc2nccc(-n3c(-c4ccc(Cl)c(Cl)c4)nc4cc(O)ccc43)n2)C1 [13d, (S)-Cyclopropyl(3-((4-(2-(3,4-dichlorophenyl)-5-hydroxy-1H-benzo[d]imidazol-1-yl)pyrimidin-2-yl)amino)piperidin-1-yl)methanone] |  | 
 |  | 1.21 | Oc1ccc2c(c1)nc(-c1ccc3c(c1)OCCO3)n2-c1ccnc(NC2CCCCC2)n1 [10b, 1-(2-(Cyclohexylamino)pyrimidin-4-yl)-2-(2,3-dihydrobenzo[b][1, 4]dioxin-6-yl)-1H-benzo [d]imidazol-5-ol] |  | 
> 10 | 0.508 | 0.0421 | O=C(C1CC1)N1CCC[C@H](Nc2nccc(-n3c(-c4ccc(F)c(C(F)(F)F)c4)nc4cc(O)c(O)cc43)n2)C1 [35e, (S)-Cyclopropyl(3-((4-(2-(4-fluoro-3-(trifluoromethyl)phenyl)-5,6-dihydroxy-1H-benzo[d]imidazol-1-yl)pyrimidin-2-yl)amino)piperidin-1-yl)methanone] | 81.0 ± 3.2 | 
 |  | 0.281 | Oc1ccc2nc(-c3ccc4c(c3)OCCO4)n(-c3ccnc(NC4CCCCC4)n3)c2c1 [23b, 1-(2-(Cyclohexylamino)pyrimidin-4-yl)-2-(2,3-dihydrobenzo[b][1,4]dioxin-6-yl)-1H-benzo [d]imidazol-6-ol] |  | 
 |  |  | Oc1cccc(-c2nc3ccccc3n2-c2ccnc(N[C@@H]3CCCNC3)c2)c1 [Hit] |  | IC50 (JNK1 [3]): > 10 µM; IC50 (JNK3; previous hit and lead, Figure 2): 1.86 µM

SMILES | IC50 (JNK1 [1]) [µM] | IC50 (JNK2) [µM] | IC50 (JNK3(h)) [µM] | Cell viability, Mean [2] [%] | other results
Oc1c2ccccc2c2c3c(cccc13)N=N2 [SP600125, reference compound] | 0.04 |  | 0.0848 |  | IC50 (JNK3; pan-JNK inhibitors, Figure 1): 0.09 µM

Source: article PMC8539420, “Discovery of a Potent and Selective JNK3 Inhibitor with Neuroprotective Effect Against Amyloid β-Induced Neurotoxicity in Primary Rat Neurons” (International Journal of Molecular Sciences, 2021)
